Reference: paper PMC8188212, “Multi‐Arm PEG/Peptidomimetic Conjugate Inhibitors of DR6/APP Interaction Block Hematogenous Tumor Cell Extravasation” (Advanced Science, 2021)
Square brackets hold non-standard residues; d marks the D form. Ends that are not written are not given here. Peptide text beside a SMILES is read from it. * marks the point of attachment. Cbz = O=C(OCc1ccccc1)*; CH2F = FC*

T1: death receptor 6 (DR6) protein (UniProt O75509 42-349, labelled with RED-tris-NTA second-generation dye)
T1 construct: death receptor 6 (DR6), bought recombinant protein; source: bought: Sino Biology, Inc. (Shanghai, China)
T1 sequence (looked up): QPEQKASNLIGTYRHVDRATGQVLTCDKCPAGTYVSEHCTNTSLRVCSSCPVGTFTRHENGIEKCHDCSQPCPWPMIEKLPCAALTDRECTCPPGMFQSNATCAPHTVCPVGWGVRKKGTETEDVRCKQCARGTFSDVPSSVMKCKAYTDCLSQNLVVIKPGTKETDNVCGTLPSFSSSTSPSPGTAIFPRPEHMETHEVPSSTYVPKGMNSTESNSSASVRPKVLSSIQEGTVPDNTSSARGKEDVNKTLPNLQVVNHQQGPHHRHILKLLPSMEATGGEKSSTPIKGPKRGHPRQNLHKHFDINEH

T2: DR6 protein (Homo sapiens, UniProt O75509)
T2 construct: purchased Sino Biology, Inc. (Shanghai, China)
T2 sequence (O75509 42-655): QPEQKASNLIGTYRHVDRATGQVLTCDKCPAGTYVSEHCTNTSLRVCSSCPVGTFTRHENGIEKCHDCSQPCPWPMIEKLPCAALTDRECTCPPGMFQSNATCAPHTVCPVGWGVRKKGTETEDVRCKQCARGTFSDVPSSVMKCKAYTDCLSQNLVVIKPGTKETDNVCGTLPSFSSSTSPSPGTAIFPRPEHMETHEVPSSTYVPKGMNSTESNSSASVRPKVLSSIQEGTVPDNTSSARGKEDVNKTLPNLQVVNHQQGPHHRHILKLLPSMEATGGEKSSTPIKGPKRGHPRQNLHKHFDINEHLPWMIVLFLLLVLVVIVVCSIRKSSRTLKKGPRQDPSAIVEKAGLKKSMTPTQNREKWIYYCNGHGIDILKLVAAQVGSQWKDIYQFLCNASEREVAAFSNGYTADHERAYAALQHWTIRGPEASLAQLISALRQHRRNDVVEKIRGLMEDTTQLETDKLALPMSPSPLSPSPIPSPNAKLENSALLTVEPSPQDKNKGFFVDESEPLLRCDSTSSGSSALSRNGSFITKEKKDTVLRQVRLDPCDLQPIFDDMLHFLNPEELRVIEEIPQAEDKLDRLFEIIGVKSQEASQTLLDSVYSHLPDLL


Test system: TCs over HUVECs monolayer
Assay: Transendothelial migration of TCs over HUVEC monolayer
Type: cell-based, human
Conditions: AHP-DRI-12 and PEG-tAHP-DRI 1 × 10^−6 M (AHP-DRI-12), Nec-1 30 × 10^–6 M, zVAD 100 × 10^–6 M; 48 h; compared with control; n = 3
Experimental: HUVECs (1 × 10^5) in DMEM were added into 24‐well plate transwell upper chambers and the medium was changed every 2 days. Using the EVOM resistance tester, the transendothelial resistance was measured daily. When the TEER resistance value was >200 Ωcm^2, the cells grew into a monolayer of tight connection. 2 × 10^5 GFP‐TCs were added into upper chambers. One milliliter DMEM containing 10% FBS was added into lower chambers overnight. AHP‐DRI‐12 and PEG‐tAHP‐DRI (1 ×10^–6 M AHP‐DRI‐12), Nec‐1 (30 × 10^–6 M), and zVAD (100 × 10^–6 M) were added in upper chambers, respectively. After incubation for 48 h, cells in lower chambers were observed by fluorescence microscope.^[ ^56 ^]

Molecule	TCs transendothelial migration
COC(=O)C[C@H](NC(=O)[C@H](C)NC(=O)[C@@H](NC(=O)OCc1ccccc1)C(C)C)C(=O)CF [zVAD, z‐VAD‐fmk, reference compound] (Cbz-Val-Ala-Asp(OMe)-CH2F)	increased number of migrated TCs

Test system: not listed separately
Assay: Pharmacokinetic study after intravenous injection
Type: in vivo
Conditions: SD rats, FITC-labeled, blood samples 0.5-72 h, microplate reader, n = 3
Experimental: To investigate the pharmacokinetic profile of AHP‐DRI‐12 and PEG‐tAHP‐DRI, SD rats were intravenously injected with FITC‐labeled AHP‐DRI‐12 and PEG‐tAHP‐DRI and blood samples were collected at 0.5, 1, 2, 4, 6, 24, 30, 48, 54, and 72 h. The DR6‐targeting peptide level of blood samples was measured by a microplate reader.

Molecule	half-life (T1/2) [h]
CC[C@@H](C)[C@@H](NC(=O)[C@@H](CC(=O)O)NC(=O)[C@@H](C)NC(=O)[C@H](NC(=O)[C@H](NC(=O)[C@H]1CCCN1)[C@H](C)O)[C@H](C)O)C(=O)N[C@@H](C(=O)O)[C@H](C)O [AHP-DRI-12] (H-[dP][dT][dT][dA][dD][dI][dT]-OH)	7.8

Target: hERG potassium channel (Homo sapiens, UniProt Q12809)
Sequence (Q12809 whole entry): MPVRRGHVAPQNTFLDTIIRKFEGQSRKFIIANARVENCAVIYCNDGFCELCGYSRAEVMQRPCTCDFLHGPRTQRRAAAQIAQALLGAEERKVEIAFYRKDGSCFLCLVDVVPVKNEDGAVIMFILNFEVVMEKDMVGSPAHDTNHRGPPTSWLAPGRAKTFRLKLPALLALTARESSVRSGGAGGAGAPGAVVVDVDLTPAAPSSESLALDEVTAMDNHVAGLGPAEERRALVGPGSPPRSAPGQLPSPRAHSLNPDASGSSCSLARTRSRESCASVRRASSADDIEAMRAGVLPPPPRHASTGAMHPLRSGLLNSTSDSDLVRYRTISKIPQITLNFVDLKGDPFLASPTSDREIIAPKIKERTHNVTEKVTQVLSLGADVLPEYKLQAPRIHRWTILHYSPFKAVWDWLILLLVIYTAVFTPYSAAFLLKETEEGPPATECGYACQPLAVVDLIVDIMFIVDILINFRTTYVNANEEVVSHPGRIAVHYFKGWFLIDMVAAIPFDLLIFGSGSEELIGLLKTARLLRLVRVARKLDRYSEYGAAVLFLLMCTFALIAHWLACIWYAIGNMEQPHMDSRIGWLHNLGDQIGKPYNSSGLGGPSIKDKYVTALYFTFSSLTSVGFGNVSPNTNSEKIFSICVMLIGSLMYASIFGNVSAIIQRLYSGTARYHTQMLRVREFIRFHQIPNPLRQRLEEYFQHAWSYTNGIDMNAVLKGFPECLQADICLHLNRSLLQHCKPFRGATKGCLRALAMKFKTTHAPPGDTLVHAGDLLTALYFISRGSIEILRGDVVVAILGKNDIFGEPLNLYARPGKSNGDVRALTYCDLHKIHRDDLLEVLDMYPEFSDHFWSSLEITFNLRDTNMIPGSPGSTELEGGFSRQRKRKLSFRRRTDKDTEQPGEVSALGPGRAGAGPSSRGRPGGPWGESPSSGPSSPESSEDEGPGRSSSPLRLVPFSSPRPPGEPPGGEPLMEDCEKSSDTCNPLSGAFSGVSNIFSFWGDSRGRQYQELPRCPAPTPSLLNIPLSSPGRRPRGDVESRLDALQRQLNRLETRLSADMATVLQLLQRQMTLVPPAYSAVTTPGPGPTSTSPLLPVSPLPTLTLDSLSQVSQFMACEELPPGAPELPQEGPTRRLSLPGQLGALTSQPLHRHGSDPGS
Assay: Whole-cell patch clamp recording of hERG current
Type: cell-based
Conditions: cisapride as positive control
Experimental: In addition, some common adverse effects suffered by frequently used medications were also evaluated. The whole‐cell patch clamp recording technique was used to record the whole‐cell hERG‐potassium to measure the cardiac toxicity of peptidomimetic agents on hERG potassium channel by utilizing cisapride as positive control (Figure 6E; Figure S10, Supporting Information). […] Meanwhile, the blood biochemical indexes of ligand‐treated mice sacrificed on day 2 or day 15 were tested to examine the influences of peptidomimetic agents to liver and kidney (Figure S11, Supporting Information).

Molecule	inhibitory effect on hERG channels
CC[C@@H](C)[C@@H](NC(=O)[C@@H](CC(=O)O)NC(=O)[C@@H](C)NC(=O)[C@H](NC(=O)[C@H](NC(=O)[C@H]1CCCN1)[C@H](C)O)[C@H](C)O)C(=O)N[C@@H](C(=O)O)[C@H](C)O [AHP-DRI-12] (H-[dP][dT][dT][dA][dD][dI][dT]-OH)	no significant inhibitory effect

Target: T1, death receptor 6 (DR6) protein
Assay: MST; DR6 protein labelled with RED-tris-NTA second-generation dye, final 50 x 10^-9 M; peptide prepared at 20 x 10^-6 M, diluted serially 1:1 in PBS-T over 12 tubes and mixed with an equal volume of labelled DR6; NanoTemper Monolith NT.015
Conditions: both partners purified

Molecule	Kd [µM]
SHTDTNQ (heptapeptide selected from a random phage display library against DR6; source: synthetic peptide (SPPS)) [AHP-13]	0.457 ± 0.0116

Test system: not listed separately
Assay: In vivo safety analysis in healthy mice
Design: species or system C57BL/6 mice
Conditions: healthy mice, intravenous, 0.2 µg g^–1 AHP-DRI-12; sacrificed day 2 or day 15
Experimental: For evaluating the toxicity of peptides in vivo, 6 week old healthy mice were intravenously injected with AHP‐DRI‐12 and PEG‐tAHP‐DRI (0.2 µg g^–1 AHP‐DRI‐12). After 2 and 15 days, mice were sacrificed and serum samples were collected for the biochemical analysis (ALT, AST, BRU, and URE). Tissue samples from various organs were collected for tissue sections. The tissue sections were analyzed by H&E staining and immunohistochemistry analysis.

Molecule	damage to liver or kidney, blood biochemical indexes (ALT, AST, BRU, URE)
CC[C@@H](C)[C@@H](NC(=O)[C@@H](CC(=O)O)NC(=O)[C@@H](C)NC(=O)[C@H](NC(=O)[C@H](NC(=O)[C@H]1CCCN1)[C@H](C)O)[C@H](C)O)C(=O)N[C@@H](C(=O)O)[C@H](C)O [AHP-DRI-12] (H-[dP][dT][dT][dA][dD][dI][dT]-OH)	could not cause any damage to liver or kidney

Target: T2, DR6 protein
Assay: KD of DR6-targeting peptides for binding to DR6 protein by MST
Conditions: Tables S1 and S2, average of three independent experiments in triplicate, NB = No binding, read-out: KD ± SEM
Experimental: For labeling DR6 protein with Red‐tris‐NTA second‐generation dye, equal volume of DR6 protein (200 × 10^–9 M) and dye (100 × 10^–9 M) were mixed. The solution was incubated for 30 min at room temperature and centrifuged for 10 min at 4 ℃ and 15 000 × g. The DR6 protein was labeled and ready for the binding assay. Prepare 25 µL of the DR6‐targeting peptides at 20 × 10^–6 M and add 10 µL of the PBS‐T into the PCR tubes 2–12. Transfer 20 µL DR6‐targeting peptides into the PCR tube 1 and then transfer 10 µL of the DR6‐targeting peptides from tube 1 to tube 2 with a pipette and mix by pipetting up and down multiple times. Transfer 10 µL to tube 3 and mix. Repeat the procedure for tube 4–12. Add 10 µL of labeled protein to each tube (1–12) and mix by pipetting. The final DR6 protein concentration was 50× 10^−9 M. Load the capillaries and measure the samples by NanoTemper Monolith NT.015.^[ ^51 , ^52 ^]

Molecule	Kd [µM]
CC(C)C[C@@H](NC(=O)[C@H]1CCCN1C(=O)[C@@H](C)NC(=O)[C@H]1CCCN1C(=O)[C@@H](CC(C)C)NC(=O)[C@H](N)Cc1ccc(O)cc1)C(=O)N1CCC[C@@H]1C(=O)O [AHP-D-03] (H-[dY][dL][dP][dA][dP][dL][dP]-OH)	4.734 ± 0.0088
CC[C@@H](C)[C@@H](NC(=O)[C@H](N)[C@H](C)O)C(=O)N[C@H](CC(=O)O)C(=O)N[C@H](C)C(=O)N[C@@H](C(=O)N[C@@H](C(=O)N1CCC[C@@H]1C(=O)O)[C@H](C)O)[C@H](C)O [AHP-D-12] (H-[dT][dI][dD][dA][dT][dT][dP]-OH)	55.1 ± 27.6
C[C@H](O)[C@@H](NC(=O)[C@@H](CC(=O)O)NC(=O)[C@H](NC(=O)[C@@H](Cc1c[nH]cn1)NC(=O)[C@H](N)CO)[C@H](C)O)C(=O)N[C@H](CC(N)=O)C(=O)N[C@H](CCC(N)=O)C(=O)O [AHP-D-13] (H-[dS][dH][dT][dD][dT][dN][dQ]-OH)	3.174 ± 0.0088
CC(C)C[C@@H](NC(=O)[C@H]1CCCN1C(=O)[C@@H](C)NC(=O)[C@H]1CCCN1C(=O)[C@@H](CC(C)C)NC(=O)[C@H]1CCCN1)C(=O)N[C@H](Cc1ccc(O)cc1)C(=O)O [AHP-DRI-03] (H-[dP][dL][dP][dA][dP][dL][dY]-OH)	1.219 ± 0.00702
C[C@H](O)[C@@H](NC(=O)[C@@H](CC(=O)O)NC(=O)[C@H](NC(=O)[C@@H](CC(N)=O)NC(=O)[C@H](N)CCC(N)=O)[C@H](C)O)C(=O)N[C@H](Cc1c[nH]cn1)C(=O)N[C@H](CO)C(=O)O [AHP-DRI-13] (H-[dQ][dN][dT][dD][dT][dH][dS]-OH)	0.8627 ± 0.00659
AFMYSLP [AHP-14]	0.457 ± 0.0116
AGHFSLW [AHP-21]	> 10
ANLLYES [AHP-04]	> 10
FQFRLQS [AHP-02]	> 10
GFSHYFP [AHP-11]	> 10
HSTAPQL [AHP-08]	> 10
HSYPYTQ [AHP-17]	> 10
KFLQVTN [AHP-16]	> 10
KLGPVCP [AHP-06]	> 10

Target: T1, death receptor 6 (DR6) protein
Assay: MST; DR6 protein labelled with RED-tris-NTA second-generation dye, final 50 x 10^-9 M; peptide prepared at 20 x 10^-6 M, diluted serially 1:1 in PBS-T over 12 tubes and mixed with an equal volume of labelled DR6; NanoTemper Monolith NT.015
Conditions: both partners purified
Remark: another data set of the same source

Molecule	Kd [µM]
SHTDTNQ (heptapeptide selected from a random phage display library against DR6; source: synthetic peptide (SPPS)) [AHP-13]	1.15
